# “Also recorded” adds a separate entry of the source.
# Legend:
# [1] = test system: LNCaP (AR+, HLA-A2) cells; assay: Cell proliferation and viability by trypan blue exclusion, LNCaP; format: cell-based, human; settings: 10 μM
# Description: (§1) Cells were harvested 24, 48, or 72 h after exposure, and the total number of adherent viable cells was determined by trypan blue exclusion. Viability was confirmed by 7AAD staining.
# [2] = test system: PC-3 (AR−, HLA-A24) cells; assay: Cell proliferation and viability by trypan blue exclusion, PC-3; format: cell-based, human; settings: 10 μM
# Description: as §1
# [3] = test system: PC-3 cells; assay: MUC1-specific CTL lysis assay, PC-3 targets; format: cell-based, human; settings: 10 μM, 48 hours, E:T 30:1, vs vehicle
# Description: (§3) At specific time points, cells were harvested and counted. Equal numbers of effector target cells from all treatment were plated with respective cytotoxic T-cells.
# [4] = test system: PSA; assay: RT-PCR of PSA mRNA in LNCaP cells; format: cell-based, human; settings: 10 μM, 48 hours, P<0.0001
# [5] = test system: NAIP; assay: NAIP immunohistochemistry in LNCaP xenografts in nude mice; format: in vivo; settings: 10 mg/day, 7 days
# Excerpt: To examine the reduced expression of NAIP in vivo, either LNCaP or PC-3 cells were transplanted into […] nude mice (Charles River, Wilmington, Mass.) (s.c. in the right flank with 5×10^6 LNCaP or PC-3 prostate tumor cells). […] After 7 days of treatment, tumors were subjected to immunohistochemistry staining to detect the presence and intensity of NAIP expression. Specifically, NAIP expression was detected via immunohistochemistry using a rabbit polyclonal antibody to NAIP (Novus Bio, Littleton, Colo.) according to the manufacturer's instructions. Entire slides were digitally scanned by an Aperio ScanScope CS system and analyzed by Aperio ImageScope Viewer software (Aperio Technologies Inc., Vista, Calif.). Statistical analysis was performed using 3-7 murine tumors, each prepared as a complete stained tumor section. Positive tumor regions were determined using the Positive Pixel Count v9 algorithm. Negative controls included omission of primary antibody with PBS and matched rabbit isotype antibody. In all cases, necrotic areas of tumor were excluded from analysis.
# [6] = test system: LNCaP/AR(cs) cells; assay: Cell proliferation and viability, LNCaP/AR(cs); format: cell-based, human
# [7] = test system: LNCaP/AR(cs) cells; assay: CEA- or PSA-specific CD8+ T-cell killing, LNCaP/AR(cs) targets; format: cell-based, human
# [8] = test system: LNCaP cells; assay: CEA- or PSA-specific CD8+ T-cell killing, LNCaP targets; format: cell-based, human; settings: 10 μM, 48 hours, P<0.01
# [9] = test system: ZR75-1 (ER+AR+) cells; assay: Tumor cell proliferation, ZR75-1; format: cell-based, human; settings: 10 μM; 48 or 72 hours; P<0.05 vs vehicle
# Description: At the indicated time points, cells were harvested and the number of viable cells was determined by trypan blue exclusion.
# [10] = test system: ZR75-1 (ER+AR+) cells; assay: CEA-specific CTL lysis assay, ZR75-1 targets; format: cell-based, human; settings: 10 μM, E:T 30:1, vs vehicle
# Description: (§2) The HLA-A2-restricted CEA-specific CTL recognizes the CEA peptide epitope […] (SEQ ID NO: 1) (CAP-1). […] The percentage of tumor lysis was calculated as follows: % tumor lysis=[(experimental cpm−spontaneous cpm)/(maximum cpm−spontaneous cpm)]×100.
# These cells were then used as target cells for CTL-mediated killing assays utilizing CEA-specific CTLs.
# [11] = test system: BT549 (ER−AR+) cells; assay: CEA-specific CTL lysis assay, BT549 targets; format: cell-based, human; settings: 10 μM, E:T 30:1, vs vehicle, P<0.01
# Description: as §2
# [12] = test system: MDA MB 231 (ER−AR−) cells; assay: Apoptosis PCR array (90 genes) in MDA MB 231 cells; format: cell-based, human; settings: 24 hours, qRT-PCR
# Description: Total RNA was isolated from the cells using the RNeasy Extraction Kit (Qiagen, Valencia, Calif.). RNA was reverse-transcribed into cDNA using the Advantage RT-for-PCR Kit (Clontech, Mountain View, Calif.). cDNA (10 ng) was used in a quantitative real-time (RT) PCR reaction using probes specific for AR (Hs00901571_m1) and GAPDH (4326317E). AR mRNA expression level was calculated as expression relative to GAPDH. […] Total RNA was isolated from the cells using the RNeasy Extraction Kit. RNA was reverse-transcribed into cDNA using the RT^2 First Strand Kit (SA Biosciences, Valencia, Calif.). Relative mRNA expression levels of 90 genes involved in apoptosis were assessed using an apoptosis PCR array (SA Biosciences) per the manufacturer's instructions. RT-PCR was performed on the 7300 Real-Time PCR System (Applied Biosystems, Carlsbad, Calif.).
# OPG is a decoy receptor for receptor activator of nuclear factor kappa-B ligand (RANKL) which inhibits RANKL activation of nuclear factor kappa-B induced apoptosis.
# [13] = test system: OPG; assay: ELISA of secreted OPG, MDA MB 231 cells; format: cell-based, human; settings: 10 μM, 48 hours, P<0.05
# Description: ELISA was performed on combined supernatant samples taken following 24 and 48 hours of treatment.
# OPG expression was inhibited in MDA MB 231 cells using siRNA duplexes targeting OPG sequences and control siRNA duplexes (Origene, Rockville, Md.). MDA-MB-231 cells were transfected with OPG or control siRNA according to the manufacturer's instructions. […] Forty-eight hours post siRNA transfection, the MDA MB 231 cells were also used as target cells in CEA-specific CTL and TRAIL-mediated lysis assays as described.
# [14] = test system: LNCaP control-shRNA (AR+, HLA-A2) cells; settings: 10 μM; P<0.01
# [15] = test system: ZR75-1 cells; settings: 10 μM, 48 hours
# Description: After 48 hours, cells were harvested and stained with the following antibodies: HLA A2-PE-Cy7, MUC-1-FITC, CD54-BV421, CD95-FITC (BD Biosciences, San Jose, Calif.), CEA-APC (Miltenyi Biotec, Auburn, Calif.), TRAIL receptor 1 and TRAIL receptor 2 (R & D Systems, Minneapolis, Minn.). LIVE/DEAD Fixable Violet Dead Cell Stain (Life Technologies, Grand Island, N.Y.) was used to determine cell viability. Cells were incubated with the antibodies for 30 min at 4° C., acquired on a FACS Verse flow cytometer (Becton Dickinson, Franklin Lakes, N.J.), and analyzed using FlowJo software (TreeStar, Inc., Ashland, Oreg.).
# [16] = test system: LNCaP cells; assay: PSA-specific CD8+ T-cell killing, LNCaP targets; settings: 10 μM, 48 hours, E:T 30:1, P<0.01
# Description: as §3
# [17] = test system: LNCaP control-shRNA cells; assay: CEA-specific CTL lysis assay, LNCaP control-shRNA targets; settings: 10 μM, 48 hours, E:T 30:1, P<0.05
# Description: as §3
# [18] = trypan blue exclusion after 3 days of drug exposure
substance,measurement,setting,value
enzalutamide,viability of LNCaP cells,[1]; [18],Neither enzalutamide nor abiraterone affected the viability
same,growth / proliferation of LNCaP cells,"[1]; vs vehicle (DMSO), P<0.01",significantly inhibited the growth
same,viability of PC-3 cells,[2]; [18],Neither enzalutamide nor abiraterone affected the viability
same,proliferation of PC-3 cells,[2]; vs vehicle (DMSO),did not inhibit the proliferation
same,sensitivity to MUC1-specific CTL-mediated lysis,[3],neither enzalutamide nor abiraterone improved PC-3 cells' sensitivity; also recorded: did not improve the sensitivity
same,reduction in levels of PSA mRNA,[4],5.5 fold
same,NAIP staining in LNCaP tumors vs untreated mice,[5]; immunohistochemistry,much less intense staining
same,decrease of overall population of tumor cells expressing NAIP,"[5]; LNCaP xenografts, P<0.01",1.5 fold
same,increase in tumor area that did not express NAIP,"[5]; LNCaP xenografts, P<0.01",2.2 fold
same,proliferation of LNCaP/AR(cs) cells,[6]; 10 μM,did not inhibit the proliferation
same,inhibition of growth of LNCaP/AR(cs) cells,[6]; 30 μM,50%
same,viability of LNCaP/AR(cs) cells,[6]; 30 μM,no effect on the cells' viability
same,sensitivity to T-cell killing,"[7]; 10 μM, CEA- or PSA-specific CD8+ T-cells, P<0.01",significantly improved the cells' sensitivity
same,sensitivity to T-cell killing,"[7]; 30 μM, P<0.01, no significant difference to 10 μM",significantly improved the cells' sensitivity
same,sensitivity to T-cell killing,[8],significantly improved the cells' sensitivity
same,proliferation of ZR75-1 cells,[9],significantly inhibited the proliferation
same,sensitivity to CEA-specific CTL-mediated lysis,[10],significantly enhanced their sensitivity
same,sensitivity to CEA-specific CTL-mediated lysis,[11],significantly improved their sensitivity
same,osteoprotegerin (OPG) gene down-regulated,[12],~25 fold
same,amount of secreted OPG,[13],reduced the amount of OPG
same,proliferation of LNCaP control-shRNA,[14],significantly inhibited the proliferation
same,CEA mean fluorescence intensity,[15],4690
same,CEA percent positivity,[15],28.9%
same,Fas mean fluorescence intensity,[15],1611
same,Fas percent positivity,[15],26.8%
same,HLA A2 mean fluorescence intensity,[15],3047
same,HLA A2 percent positivity,[15],10.0%
same,ICAM-1 mean fluorescence intensity,[15],2473
same,ICAM-1 percent positivity,[15],26.1%
same,MUC-1 mean fluorescence intensity,[15],2203
same,MUC-1 percent positivity,[15],37.1%
same,Trail R1 mean fluorescence intensity,[15],4325
same,Trail R1 percent positivity,[15],7.9%
same,Trail R2 mean fluorescence intensity,[15],4502
same,sensitivity to PSA-specific T-cell killing,[16],significantly improved their sensitivity
same,sensitivity to CEA-specific CTL-mediated lysis,[17],significantly enhanced the sensitivity
